Laboratory results published in patent US20250009877A1, “TREATMENT FOR CANCER” (Seagen Inc., priority 2021, published 2025).

How the values were obtained:
interleukin-10 (IL-10) = experiment: Induction of immune-dampening cytokines; details: unlike fully agonistic antibodies such as antibody 24.4.1
murine CD40 = murine CD40 (Mus musculus, UniProt P27512); experiment: Recognition of murine CD40; type: binding
CD40 signaling pathway = details: compared to the parent antibody dacetuzumab; cited from earlier work
FcγIII receptors = details: compared to the fucosylated parent antibody dacetuzumab; cited from earlier work

Chain of murine CD40 (P27512 20-289): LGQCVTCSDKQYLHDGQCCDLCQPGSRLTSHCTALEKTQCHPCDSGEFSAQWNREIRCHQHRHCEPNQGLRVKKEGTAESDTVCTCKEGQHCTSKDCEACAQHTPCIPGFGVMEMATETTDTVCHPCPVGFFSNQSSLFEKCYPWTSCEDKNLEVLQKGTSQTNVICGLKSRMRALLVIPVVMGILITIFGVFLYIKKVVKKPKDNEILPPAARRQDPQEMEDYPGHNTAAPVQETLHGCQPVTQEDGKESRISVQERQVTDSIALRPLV

For “SEA-CD40: non-fucosylated humanized S2C6 anti-CD40 antibody; heavy chain SEQ ID NO: 1, light chain SEQ ID NO: 2; parent antibody dacetuzumab”, the “production of immune-dampening cytokines such as interleukin-10 (IL-10)” value (interleukin-10 (IL-10)) is given as “does not induce production”, the “recognition of murine CD40” value (murine CD40) is given as “does not recognize” and the “ability to activate the CD40 signaling pathway in immune cells” value (CD40 signaling pathway) is given as “enhanced ability to activate”. The “binding to FcγIII receptors” value (FcγIII receptors) was “enhanced binding”.
